Molecules are shown by their SMILES. Where a name gives a salt, the structure may show the parent alone. Read-outs that look alike come from different tables or passages of the source.

Among the test systems are MOLM-13; M07e; MV4-11; ML-2; CMK; U937; CMS; CHRF288-11.
What all share (parameters): species or system AML cell lines (8); Primary HTS, single concentration about 10 uM, Cell Titer Glo viability; log10 luminescence, per cent inhibition relative to cycloheximide control
Common to all, as to conditions: 72 h, relative to cycloheximide control, log10 luminescence, inhibitor

`COCCOC(=O)C1=C(C)NC(C)=C(C(=O)OC(C)C)C1c1cccc([N+](=O)[O-])c1` (stereo not shown) [SJ000285435-8, NIMODIPINE]: in the test on MOLM-13 (MOLM-13 %inh, 10 µM), the MOLM-13 %inh amounted to 3.286%. For the same compound, the M07e %inh in the test with M07e (M07e %inh, 10 µM) is -0.8371%. The MV4-11 %inh in the test with MV4-11 (MV4-11 %inh, 10 µM) is reported as 7.361%. In addition, the ML-2 %inh in the test on ML-2 (ML-2 %inh, 10 µM) is 3.664%. For the same compound, the CMK %inh in the test on CMK (CMK %inh, 10 µM) was -2.491%. For the same compound, the U937 %inh in the test on U937 (U937 %inh, 10 µM) was found to be 6.247%. For the same compound, the CMS %inh in the test with CMS (CMS %inh, 10 µM) is reported as -0.4109%. The CHRF288-11 %inh in the test on CHRF288-11 (CHRF288-11 %inh, 10 µM) is recorded as 5.054%.
`O=C(O[C@H]1CN[C@H](C#Cc2cc3ncnc(Nc4ccc5c(cnn5Cc5ccccc5)c4)c3s2)C1)N1CCOCC1` [SJ000573215-1, U19635/172/2]: the MOLM-13 %inh with MOLM-13 amounted to 2.242%. For the same compound, in the test on M07e, the M07e %inh is listed as -0.8707%. For the same compound, in the test with MV4-11, the MV4-11 %inh stood at 1.975%. In addition, the ML-2 %inh in the test on ML-2 was determined as 2.941%. Also, the CMK %inh in the test with CMK is recorded as 78.93%. Further, in the test on U937, the U937 %inh is recorded as 3.001%. For the same compound, the CMS %inh in the test with CMS worked out at 5.16%. The CHRF288-11 %inh with CHRF288-11 is on record as 51%.
Consider `NC(N)=Nc1nc(CSCC/C(N)=N/S(N)(=O)=O)cs1` [SJ000285829-7, FAMOTIDINE], for which the MOLM-13 %inh in the test on MOLM-13 stood at 1.07%. The M07e %inh in the test on M07e is on record as 1.389%. For the same compound, the MV4-11 %inh with MV4-11 is recorded as -0.5719%. The ML-2 %inh in the test on ML-2 was 2.616%. Besides, the CMK %inh in the test with CMK stood at 0.6614%. Also, the U937 %inh with U937 was determined as 7.705%. Besides, the CMS %inh in the test with CMS is reported as 0.7839%. In the test on CHRF288-11, the CHRF288-11 %inh was -4.142%.
As to `NS(=O)(=O)c1ccc(-c2cc3ccncc3cc2OCc2ccccc2)cc1` [SJ000573084-1, R12606/136/38], the MOLM-13 %inh in the test with MOLM-13 is 2.161%. Further, the M07e %inh with M07e stood at 5.451%. For the same compound, the MV4-11 %inh with MV4-11 is given as -2.181%. The ML-2 %inh in the test on ML-2 came out at 1.187%. Besides, the CMK %inh in the test with CMK is reported as -0.9682%. In the test on U937, the U937 %inh is on record as 0.3678%. Moreover, in the test on CMS, the CMS %inh was 4.611%. In the test with CHRF288-11, the CHRF288-11 %inh is listed as 3.946%.
`Fc1ccc(-c2c(-c3ccncc3)[nH]c3cccnc23)cc1` [SJ000581088-1]: the MOLM-13 %inh in the test with MOLM-13 is given as -2.723%. For the same compound, the M07e %inh with M07e was 3.19%. Further, the MV4-11 %inh in the test with MV4-11 stood at 0.5271%. Moreover, the ML-2 %inh in the test with ML-2 is given as -1.446%. The CMK %inh with CMK was -0.07997%. Also, the U937 %inh in the test on U937 worked out at 1.73%. In the test with CMS, the CMS %inh is on record as 0.767%. Also, the CHRF288-11 %inh in the test on CHRF288-11 worked out at 1.888%.
`Fc1ccc(-c2c(-c3ccncc3)n(CCN3CCOCC3)c3cccnc23)cc1` [SJ000581060-1]: in the test on MOLM-13, the MOLM-13 %inh is -2.603%. The M07e %inh with M07e was found to be 4.186%. Besides, the MV4-11 %inh in the test on MV4-11 is listed as -0.5528%. The ML-2 %inh with ML-2 stood at 0.7421%. The CMK %inh in the test on CMK is recorded as -1.956%. The U937 %inh in the test with U937 came to 3.3%. Also, the CMS %inh with CMS amounted to 2.843%. In addition, the CHRF288-11 %inh in the test with CHRF288-11 worked out at 10.61%.
Regarding `O=C1Nc2ccc(C(=O)c3ccco3)cc2C1=Cc1cc(Cl)c(O)c(Cl)c1` [SJ000573076-1, U12068/71/3], the MOLM-13 %inh with MOLM-13 is reported as 0.2179%. Moreover, the M07e %inh in the test with M07e was 2.097%. Also, in the test on MV4-11, the MV4-11 %inh is given as 1.256%. For the same compound, in the test with ML-2, the ML-2 %inh is reported as 3.323%. In addition, the CMK %inh in the test on CMK was -2.763%. For the same compound, the U937 %inh with U937 was -1.189%. For the same compound, in the test with CMS, the CMS %inh was found to be 3.176%. Moreover, in the test on CHRF288-11, the CHRF288-11 %inh was 1.037%.
On to `O=Cc1c2[nH]c3ccccc3c2cc2[nH]c3ccccc3c12` [SJ000561043-1, 6-FORMYLINDOLO [3,2-B] CARBAZOLE], for which the MOLM-13 %inh in the test with MOLM-13 is listed as 1.501%. Also, in the test on M07e, the M07e %inh came out at 3.515%. In addition, the MV4-11 %inh in the test on MV4-11 was 15.88%. Further, the ML-2 %inh in the test on ML-2 worked out at 1.695%. The CMK %inh in the test with CMK came to 0.1175%. Besides, the U937 %inh in the test with U937 was -0.0231%. Also, the CMS %inh in the test with CMS is on record as 2.828%. For the same compound, in the test on CHRF288-11, the CHRF288-11 %inh was found to be 8.34%.
On to `CC(C)C[C@H](N)[C@](O)(Cc1cnc[nH]1)C(=O)O` [SJ000772431-1, LEUHISTIN], for which the MOLM-13 %inh in the test on MOLM-13 is given as 0.702%. Also, the M07e %inh with M07e came to 1.038%. Moreover, the MV4-11 %inh with MV4-11 stood at 3.279%. In addition, the ML-2 %inh in the test on ML-2 was found to be 5.093%. In the test with CMK, the CMK %inh is given as -1.024%. Further, the U937 %inh in the test with U937 was determined as 2.882%. Further, the CMS %inh in the test with CMS is 1.294%. The CHRF288-11 %inh in the test with CHRF288-11 stood at 4.998%.
Take `CS(=O)(=O)CCNCc1nc(-c2ccc3ncnc(Nc4ccc(F)c(Cl)c4)c3c2)cs1` [SJ000573208-1, R2677/150/1]: the MOLM-13 %inh in the test on MOLM-13 is 1.729%. Moreover, in the test with M07e, the M07e %inh came out at 1.192%. Besides, the MV4-11 %inh in the test with MV4-11 is recorded as 1.268%. Moreover, in the test on ML-2, the ML-2 %inh is reported as 0.9399%. Further, the CMK %inh in the test on CMK amounted to 3.345%. The U937 %inh with U937 is recorded as -0.3412%. Also, the CMS %inh in the test on CMS is on record as 3.363%. For the same compound, the CHRF288-11 %inh with CHRF288-11 is recorded as 0.6669%.
In the case of `CN=C1NC(=O)/C(=C/c2ccc3ncccc3c2)S1` [SJ000581072-1], in the test with MOLM-13, the MOLM-13 %inh was 28.17%. Also, in the test on M07e, the M07e %inh is 18.48%. The MV4-11 %inh in the test with MV4-11 is 9.718%. Also, the ML-2 %inh in the test on ML-2 is listed as 4.634%. The CMK %inh in the test on CMK is 44.3%. Also, the U937 %inh with U937 is reported as 7.703%. Further, the CMS %inh in the test on CMS is reported as 9.143%. In the test with CHRF288-11, the CHRF288-11 %inh came out at 174.6%.
Turning to `COc1cccc(C2=C(c3c(C)n(C)c4ccccc34)C(=O)NC2=O)c1` [SJ000581144-1], the MOLM-13 %inh with MOLM-13 came out at 3.467%. For the same compound, the M07e %inh in the test on M07e amounted to 8.342%. Also, in the test on MV4-11, the MV4-11 %inh was determined as 0.7267%. Further, in the test on ML-2, the ML-2 %inh was -0.7501%. The CMK %inh with CMK is 1.238%. Moreover, the U937 %inh in the test on U937 is 1.12%. Besides, in the test with CMS, the CMS %inh was -0.561%. The CHRF288-11 %inh with CHRF288-11 is 0.2394%.
Consider `CC(C)(c1ccc(OCC2CO2)cc1)c1ccc(OCC2CO2)cc1` (stereo not shown) [SJ000546498-1, BADGE], for which the MOLM-13 %inh in the test with MOLM-13 is given as -1.249%. In addition, the M07e %inh in the test with M07e is given as -0.5797%. Moreover, in the test on MV4-11, the MV4-11 %inh is recorded as 2.685%. In addition, the ML-2 %inh in the test on ML-2 is recorded as 0.3622%. The CMK %inh with CMK was found to be 0.4379%. In the test on U937, the U937 %inh is on record as -0.2101%. Also, in the test on CMS, the CMS %inh was -0.9549%. The CHRF288-11 %inh in the test with CHRF288-11 worked out at 3.756%.
Take `CN(C)CCC=C1c2ccccc2C=Cc2ccccc21` [SJ000285960-7, CYCLOBENZAPRINE HYDROCHLORIDE]: the MOLM-13 %inh in the test with MOLM-13 is -2.604%. In addition, the M07e %inh in the test with M07e was found to be 2.233%. Further, in the test on MV4-11, the MV4-11 %inh came out at 2.11%. Also, the ML-2 %inh in the test on ML-2 worked out at 3.717%. The CMK %inh in the test on CMK was 3.38%. For the same compound, the U937 %inh with U937 turned out to be 7.437%. Besides, the CMS %inh with CMS was -1.125%. Besides, the CHRF288-11 %inh in the test with CHRF288-11 came to 66.65%.
Consider `COC(=O)C1=C(C)NC(C)=C(C(=O)OC(C)C)C1c1cccc2nonc12` (stereo not shown) [SJ000287510-2, ISRADIPINE], for which, in the test with MOLM-13, the MOLM-13 %inh was found to be 6.188%. Besides, the M07e %inh in the test on M07e is on record as 0.2973%. Moreover, in the test on MV4-11, the MV4-11 %inh worked out at 2.426%. The ML-2 %inh in the test on ML-2 was -1.199%. The CMK %inh in the test on CMK was -2.127%. For the same compound, the U937 %inh in the test with U937 was 3.366%. In addition, the CMS %inh in the test on CMS was -2.562%. In addition, the CHRF288-11 %inh in the test with CHRF288-11 was 8.592%.
On to `CCn1c(-c2nonc2N)nc2c(C#CC(C)(C)O)ncc(OC[C@@H]3CCCN3)c21` [SJ000573333-1, ML205742-149B0], for which, in the test on MOLM-13, the MOLM-13 %inh worked out at 74.82%. In the test on M07e, the M07e %inh is 9.925%. Also, in the test on MV4-11, the MV4-11 %inh turned out to be 16.86%. In the test on ML-2, the ML-2 %inh came out at 7.469%. In the test with CMK, the CMK %inh is reported as 15.2%. The U937 %inh in the test on U937 came to 42.79%. Also, the CMS %inh with CMS is given as 14%. Also, the CHRF288-11 %inh in the test with CHRF288-11 is listed as 13.49%.
For the compound `COc1ccc2nc3cc(Cl)ccc3c(Nc3cc(CN4CCCC4)c(O)c(CN4CCCC4)c3)c2n1` [SJ000518979-1, PYRONARIDINE PHOSPHATE], in the test on MOLM-13, the MOLM-13 %inh was determined as 93.43%. The M07e %inh in the test with M07e is given as 115%. Further, in the test on MV4-11, the MV4-11 %inh is 74.19%. In the test with ML-2, the ML-2 %inh worked out at 59.06%. Moreover, the CMK %inh with CMK is 87.35%. Further, in the test with U937, the U937 %inh is 76.7%. In addition, in the test with CMS, the CMS %inh is listed as 102.4%. The CHRF288-11 %inh in the test with CHRF288-11 turned out to be 68.68%.

The record behind these values is paper PMC6522510 (Nature Communications, 2019).
